Laboratory results from ChEMBL document CHEMBL4342403, “New evolutions in the BACE1 inhibitor field from 2014 to 2018” (Bioorg Med Chem Lett, 2019).
Values belong to the compound of their own block, whether it stands above or below them.

Key:
Beta-secretase 1 [1] = molecular target: Beta-secretase 1 (Cricetulus griseus, UniProt G3IAK4); assay: Inhibition of BACE1 in CHO cells expressing human APP assessed as reduction in amyloidbeta (1 to 40 residues) level incubated for 24 hrs by immunoassay method; assay type: cell-based
Beta-secretase 1 [2] = molecular target: T1, Beta-secretase 1 (Homo sapiens, UniProt P56817); assay: Inhibition of BACE1 (unknown origin) incubated for 120 mins using APP swedish mutant as substrate by FRET assay
Canis familiaris [3] = assay: In vivo inhibition of BACE1 in Beagle dog assessed as reduction in amyloidbeta (1 to 42 residues) at 1.25 mg/kg, po measured at 8 hrs post dose relative to baseline; assay type: functional; settings: Canis lupus familiaris
Canis familiaris [4] = assay: In vivo inhibition of BACE1 in Beagle dog assessed as reduction in amyloidbeta (1 to 42 residues) at 0.31 mg/kg, po measured at 8 hrs post dose relative to baseline; assay type: functional; settings: Canis lupus familiaris
Beta-secretase 1 [5] = molecular target: T1, Beta-secretase 1; assay: Inhibition of BACE1 in human SK-N-BE(2) cells expressing human APP695 assessed as reduction in amyloidbeta (1 to 42 residues) level incubated for 18 hrs by sandwich ELISA; assay type: cell-based
Canis familiaris [6] = assay: In vivo inhibition of BACE1 in Beagle dog assessed as reduction in amyloidbeta (1 to 42 residues) at 0.16 mg/kg, po measured at 8 hrs post dose relative to baseline; assay type: functional; settings: Canis lupus familiaris
Beta-secretase 2 [7] = molecular target: T2, Beta-secretase 2 (Homo sapiens, UniProt Q9Y5Z0); assay: Inhibition of BACE2 (unknown origin) incubated for 450 mins using APP swedish mutant as substrate by FRET assay
T2 sequence (Q9Y5Z0 whole entry): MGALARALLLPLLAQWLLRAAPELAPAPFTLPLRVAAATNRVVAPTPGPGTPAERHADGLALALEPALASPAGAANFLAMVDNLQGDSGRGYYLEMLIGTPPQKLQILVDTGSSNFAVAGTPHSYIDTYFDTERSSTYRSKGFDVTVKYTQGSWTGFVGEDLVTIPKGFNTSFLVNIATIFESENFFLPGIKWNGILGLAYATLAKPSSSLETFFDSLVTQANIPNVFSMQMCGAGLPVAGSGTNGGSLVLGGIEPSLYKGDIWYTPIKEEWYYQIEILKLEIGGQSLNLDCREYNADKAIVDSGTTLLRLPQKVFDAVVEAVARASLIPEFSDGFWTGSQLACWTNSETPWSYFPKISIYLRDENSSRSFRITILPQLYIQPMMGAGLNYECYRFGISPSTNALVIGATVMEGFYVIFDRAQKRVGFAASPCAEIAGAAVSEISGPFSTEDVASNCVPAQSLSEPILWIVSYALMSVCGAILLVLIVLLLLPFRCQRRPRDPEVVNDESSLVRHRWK

P-glycoprotein (ABCB1) = P-glycoprotein (ABCB1) (Homo sapiens, UniProt P08183); assay: Substrate activity at P-glycoprotein (unknown origin) in MDCK-MDR1cells assessed as efflux ratio incubated over 60 mins by LC-MS/MS analysis; settings: MDCK-MDR1
[8] = Drug uptake in Sprague Dawley rat brain at 3 mg/kg, po by UPLC-MS/MS analysis; assay type: ADME, organism-based; settings: in vivo
Rattus norvegicus = assay: In vivo inhibition of BACE1 in Sprague Dawley rat assessed as reduction in amyloidbeta 40 level in brain at 3 mg/kg, po by ELISA relative to control; assay type: functional
Homo sapiens [9] = species on record: Homo sapiens; assay: Selectivity ratio of IC50 for human BACE2 to IC50 for human BACE1
Mus musculus = assay: In vivo inhibition of BACE1 in C57B1/6J mouse assessed as reduction in amyloidbeta 40 level in brain at 30 mg/kg, po measured at 4 hrs post dose by AlphaLISA relative to control; assay type: functional
Beta-secretase 1 [10] = molecular target: T1, Beta-secretase 1; assay: Inhibition of BACE1 in human H4 cells transfected with APP695 assessed as […] incubated for 18 hrs by ELISA; assay type: cell-based
[11] = Dissociation constant, pKa of the compound; assay type: physicochemical
Homo sapiens [12] = assay: In vivo inhibition of BACE1 in human assessed as reduction in amyloidbeta40 level in CSF at 85 mg, qd administered for 3 months relative to control; assay type: functional
Beta-secretase 1 [13] = molecular target: T1, Beta-secretase 1; assay: Inhibition of human BACE1 expressed in HEK293 cells incubated for 16 to 24 hrs by FRET assay; assay type: cell-based
Beta-secretase 1 [14] = molecular target: T1, Beta-secretase 1; assay: Inhibition of BACE1 in human SH-SY5Y cells transfected with APP695 assessed as reduction in amyloidbeta (1 to 40 residues) incubated for 24 hrs by sandwich ELlSA; assay type: cell-based
Beta-secretase 2 [15] = molecular target: T2, Beta-secretase 2; assay: Inhibition of human BACE2 expressed in HEK293 cells incubated for 16 to 24 hrs by FRET assay; assay type: cell-based

T1 sequence (P56817 whole entry, the tested form may be a part): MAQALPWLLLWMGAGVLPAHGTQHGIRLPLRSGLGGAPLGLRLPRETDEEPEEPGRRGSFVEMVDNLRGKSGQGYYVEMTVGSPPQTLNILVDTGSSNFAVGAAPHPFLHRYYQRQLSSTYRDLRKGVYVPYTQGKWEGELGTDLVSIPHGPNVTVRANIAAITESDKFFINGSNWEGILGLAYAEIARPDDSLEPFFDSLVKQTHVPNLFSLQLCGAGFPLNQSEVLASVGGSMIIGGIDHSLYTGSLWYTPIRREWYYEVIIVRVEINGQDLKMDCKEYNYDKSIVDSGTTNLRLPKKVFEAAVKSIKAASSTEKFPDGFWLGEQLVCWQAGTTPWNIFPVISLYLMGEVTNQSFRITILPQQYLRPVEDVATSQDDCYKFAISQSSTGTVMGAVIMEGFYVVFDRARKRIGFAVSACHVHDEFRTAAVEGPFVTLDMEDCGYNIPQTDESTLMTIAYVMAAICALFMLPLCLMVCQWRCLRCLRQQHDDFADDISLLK
Chain of P-glycoprotein (ABCB1) (P08183 whole entry): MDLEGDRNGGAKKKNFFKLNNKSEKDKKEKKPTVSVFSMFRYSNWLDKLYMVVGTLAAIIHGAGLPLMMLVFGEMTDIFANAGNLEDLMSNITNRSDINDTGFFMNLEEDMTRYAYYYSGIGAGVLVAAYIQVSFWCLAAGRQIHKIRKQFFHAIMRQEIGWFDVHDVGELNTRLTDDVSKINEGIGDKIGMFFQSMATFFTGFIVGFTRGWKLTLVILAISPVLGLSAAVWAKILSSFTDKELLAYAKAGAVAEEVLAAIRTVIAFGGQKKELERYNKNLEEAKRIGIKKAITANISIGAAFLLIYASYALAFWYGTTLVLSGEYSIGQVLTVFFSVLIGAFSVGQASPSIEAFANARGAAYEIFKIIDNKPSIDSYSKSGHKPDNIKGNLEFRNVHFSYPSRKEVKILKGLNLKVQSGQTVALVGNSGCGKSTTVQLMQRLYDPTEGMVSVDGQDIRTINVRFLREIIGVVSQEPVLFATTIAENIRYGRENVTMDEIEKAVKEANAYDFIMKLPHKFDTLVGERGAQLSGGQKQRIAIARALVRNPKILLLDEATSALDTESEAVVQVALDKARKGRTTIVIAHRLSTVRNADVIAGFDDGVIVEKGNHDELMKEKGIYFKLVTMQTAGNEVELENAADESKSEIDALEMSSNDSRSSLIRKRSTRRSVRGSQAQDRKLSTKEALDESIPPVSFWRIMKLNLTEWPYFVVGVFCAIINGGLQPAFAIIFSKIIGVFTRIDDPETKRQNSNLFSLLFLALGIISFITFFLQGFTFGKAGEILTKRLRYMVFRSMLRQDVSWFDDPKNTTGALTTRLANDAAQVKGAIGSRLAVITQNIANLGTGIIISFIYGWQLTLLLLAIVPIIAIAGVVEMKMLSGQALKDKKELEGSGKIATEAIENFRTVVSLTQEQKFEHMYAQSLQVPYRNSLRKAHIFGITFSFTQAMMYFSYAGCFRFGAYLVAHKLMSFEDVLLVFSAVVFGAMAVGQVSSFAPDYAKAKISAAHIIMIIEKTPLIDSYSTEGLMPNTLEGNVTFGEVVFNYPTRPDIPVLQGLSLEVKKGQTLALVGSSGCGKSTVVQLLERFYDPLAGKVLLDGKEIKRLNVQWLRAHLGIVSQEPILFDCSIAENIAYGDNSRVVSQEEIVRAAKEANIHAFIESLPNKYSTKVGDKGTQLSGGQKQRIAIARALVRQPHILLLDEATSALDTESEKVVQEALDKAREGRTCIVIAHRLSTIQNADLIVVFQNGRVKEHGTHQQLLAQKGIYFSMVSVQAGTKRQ
Chain of Beta-secretase 1 (Cricetulus griseus, UniProt G3IAK4) (G3IAK4 whole entry, the tested form may be a part): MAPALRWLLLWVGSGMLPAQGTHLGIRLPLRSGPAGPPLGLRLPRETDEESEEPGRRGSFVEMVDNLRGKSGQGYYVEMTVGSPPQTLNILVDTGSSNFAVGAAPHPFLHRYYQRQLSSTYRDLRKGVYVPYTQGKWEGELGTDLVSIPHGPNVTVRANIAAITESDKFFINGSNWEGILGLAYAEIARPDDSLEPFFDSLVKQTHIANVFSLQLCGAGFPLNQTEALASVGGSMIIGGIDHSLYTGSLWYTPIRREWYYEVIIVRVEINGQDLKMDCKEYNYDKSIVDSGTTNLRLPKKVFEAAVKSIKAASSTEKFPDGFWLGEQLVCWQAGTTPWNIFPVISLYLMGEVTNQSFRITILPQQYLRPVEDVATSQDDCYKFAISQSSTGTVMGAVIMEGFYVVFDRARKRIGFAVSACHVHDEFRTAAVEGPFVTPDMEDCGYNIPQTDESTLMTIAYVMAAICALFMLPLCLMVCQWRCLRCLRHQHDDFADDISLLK

IC50 (Beta-secretase 1 [1]): 8 nM
Structure (SMILES): C[C@]1(c2nc(NC(=O)c3ncc(C#N)cc3Cl)ccc2F)N=C(N)OCC1(F)F

Structure (SMILES): C[C@@]1(S(C)(=O)=O)CC[C@@](CF)(c2cc(NC(=O)c3ccc(OCF)cn3)ccc2F)N=C1N
IC50 (Beta-secretase 1 [2]): 2.2 nM
inhibition in vivo at 1.25 mg/kg (Canis familiaris [3]): 89%
inhibition in vivo at 0.31 mg/kg (Canis familiaris [4]): 78%
IC50 (Beta-secretase 1 [5]): 1.6 nM
inhibition in vivo at 0.16 mg/kg (Canis familiaris [6]): 71%
IC50 (Beta-secretase 2 [7]): 16.6 nM

Structure (SMILES): [2H]C([2H])([2H])Oc1cnc(C(=O)Nc2ccc(F)c([C@@]3(C)N=C(N)[C@@](C)(F)C[C@@H]3F)c2)cn1
efflux ratio at 1 h (P-glycoprotein (ABCB1)): 0.85
Drug uptake [8]: 610 ng/g
inhibition in vivo at 3 mg/kg (Rattus norvegicus): 52%

Structure (SMILES): C[C@H]1OC[C@]2(c3cc(NC(=O)c4ccc(C#N)cn4)ccc3F)N=C(N)[C@](C)(C#N)C[C@H]12
IC50 (Beta-secretase 1 [2]): 1.86 nM
inhibition in vivo at 1.25 mg/kg (Canis familiaris [3]): 80%
inhibition in vivo at 0.31 mg/kg (Canis familiaris [4]): 54%
IC50 (Beta-secretase 1 [5]): 1.26 nM
inhibition in vivo at 0.16 mg/kg (Canis familiaris [6]): 42%
IC50 (Beta-secretase 2 [7]): 14.5 nM

Ratio IC50 (Homo sapiens [9]): > 400
Structure (SMILES): CC(F)(F)[C@H]1OC[C@]2(c3cc(NC(=O)c4cnc(-n5cncn5)cn4)ccc3F)N=C(N)SC[C@H]12

Structure (SMILES): Cc1cc(C#N)cnc1C(=O)Nc1ccc(F)c([C@@]2(C)N=C(N)C(C)(C)[S@@]3(=O)=NCC[C@@H]23)n1
inhibition in vivo at 30 mg/kg (Mus musculus): 60%

IC50 (Beta-secretase 1 [10]): < 1 nM
pKa [11]: 8.3
Structure (SMILES): C[C@H]1C[C@H]2CSC(N)=N[C@@]2(c2cc(NC(=O)c3ccc(OC(F)F)cn3)ccc2F)CO1

Structure (SMILES): C[C@@]1(c2nc(NC(=O)c3ncc(C(F)(F)F)cc3Cl)ccc2F)CO[C@@](C)(C(F)(F)F)C(N)=N1
inhibition (INH) (Homo sapiens [12]): >90%

IC50 (Beta-secretase 1 [13]): 11.9 nM
IC50 (Beta-secretase 1 [14]): 1.03 nM
IC50 (Beta-secretase 2 [15]): 602 nM
Structure (SMILES): CC(F)(F)[C@H]1OC[C@]2(c3cc(NC(=O)c4ccc(C(F)(F)F)cn4)ccc3F)N=C(N)SC[C@H]12
